± gives the standard deviation of the averaged measurements.
Experiments:
Experiment in all cases: level (log10 ratio to DMSO vehicle control); higher = higher biomarker level / cell amount than vehicle control
Conditions in all cases: in DMSO
[1] = compound: C=C(C)C(=O)OCC(F)(F)C(F)(F)C(F)(F)C(F)(F)C(F)(F)C(F)(F)C(F)(F)F
Protocol: (§1)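 BioMAP Diversity Plus panel of 12 human primary cell co-culture systems (3C, 4H, LPS, SAg, BT, BF4T, BE3C, CASM3C, HDF3CGF, KF3CT, MyoF, Mphg). Compounds were added 1 h before stimulation and left for 24 h (MyoF 48 h; BT 72 h for soluble read-outs or 6 d for IgG). Biomarkers were read by ELISA, cytotoxicity by SRB, PBMC viability and proliferation by Alamar Blue. Each well value was divided by the mean of 8 DMSO control wells on the same plate and log10 transformed; duplicate blinded samples were tested at 4 concentrations.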

[2] = compound: OCC(F)(F)C(F)(F)C(F)(F)F [1H,1H-Heptafluorobutanol]
Protocol: as §1

[3] = compound: O=S(=O)(O)C(F)(F)C(F)(F)C(F)(F)C(F)(F)F [Perfluorobutanesulfonic acid]
Protocol: as §1

[4] = compound: O=C(O)CCC(F)(F)C(F)(F)C(F)(F)F [3:3 Fluorotelomer carboxylic acid]
Protocol: as §1

[5] = compound: FC(F)(F)C(F)(F)C(F)(F)C(F)(F)C(F)(F)C(F)(F)C(F)(F)CCI [1-Iodo-1H,1H,2H,2H-perfluorononane]
Protocol: as §1

[6] = compound: O=P(O)(O)CCC(F)(F)C(F)(F)C(F)(F)C(F)(F)C(F)(F)C(F)(F)C(F)(F)C(F)(F)F [((Perfluorooctyl)ethyl)phosphonic acid]
Protocol: as §1

[7] = compound: C=CC(=O)OCCC(F)(F)C(F)(F)C(F)(F)C(F)(F)F [2-(Perfluorobutyl)ethyl acrylate]
Protocol: as §1

Row | Test System | level (log10) ([1]; 6700 nM) | level (log10) ([1]; 20000 nM) | level (log10) ([2]; 6700 nM) | level (log10) ([2]; 20000 nM) | level (log10) ([2]; 60000 nM) | level (log10) ([3]; 6700 nM) | level (log10) ([3]; 20000 nM) | level (log10) ([3]; 60000 nM) | level (log10) ([4]; 6700 nM) | level (log10) ([4]; 20000 nM) | level (log10) ([4]; 60000 nM) | level (log10) ([5]; 6700 nM) | level (log10) ([5]; 20000 nM) | level (log10) ([6]; 6700 nM) | level (log10) ([6]; 20000 nM) | level (log10) ([6]; 60000 nM) | level (log10) ([7]; 6700 nM) | level (log10) ([7]; 20000 nM) | level (log10) ([7]; 60000 nM)
1 | MyoF:CXCL8/IL-8 | -0.0215 ± 0.013 | 0.013 ± 0.014 | -0.0145 ± 0.033 | 0.016 ± 0.02 | 0.008 ± 0.0057 | 0.007 ± 0.042 | 0.0425 ± 0.021 | 0.0665 ± 0.0064 | -0.016 ± 0.037 | -0.0275 ± 0.05 | 0.0145 ± 0.093 | 0.0195 ± 0.0064 | 0.0335 ± 0.025 | 0.0105 ± 0.026 | 0.025 ± 0.011 | 0.038 ± 0.0028 | -0.0045 ± 0.0078 | -0.0025 ± 0.016 | 0.02 ± 0.025
2 | MyoF:Collagen I | 0.01 | -0.007 ± 0.0071 | -0.01 ± 0.024 | -0.0065 ± 0.022 | -0.0005 ± 0.013 | -0.017 ± 0.023 | -0.004 ± 0.0014 | -0.0235 ± 0.0064 | -0.0005 ± 0.037 | 0.0095 ± 0.0035 | 0.0255 ± 0.026 | 0.007 ± 0.0042 | -0.015 ± 0.028 | -0.021 ± 0.0014 | -0.014 ± 0.0057 | -0.009 ± 0.035 | 0.0105 ± 0.016 | 0.01 ± 0.03 | -0.002 ± 0.025
3 | MyoF:Collagen III | -0.014 ± 0.0014 | -0.014 ± 0.0042 | 0.0065 ± 0.0035 | -0.0065 ± 0.005 | -0.0065 ± 0.0064 | 0.02 ± 0.024 | 0.0265 ± 0.0064 | 0.0145 ± 0.0064 | -0.0125 ± 0.005 | -0.005 ± 0.011 | -0.0145 ± 0.0064 | 0.0145 ± 0.0021 | -0.0055 ± 0.03 | -0.013 ± 0.014 | -0.013 ± 0.017 | -0.073 ± 0.05 | -0.009 ± 0.016 | -0.006 ± 0.0028 | -0.0265 ± 0.013
4 | MyoF:Collagen IV | -0.0155 ± 0.0064 | 0.0195 ± 0.016 | -0.0305 ± 0.025 | -0.037 ± 0.033 | -0.029 ± 0.0071 | 0.04 ± 0.0057 | 0.0055 ± 0.033 | 0.016 ± 0.013 | -0.0275 ± 0.042 | -0.029 ± 0.031 | -0.004 ± 0.035 | 0.027 ± 0.0042 | 0.082 ± 0.018 | -0.0005 ± 0.013 | 0.012 ± 0.025 | -0.01 ± 0.057 | 0.0195 ± 0.0078 | -0.0085 ± 0.012 | 0.0295 ± 0.035
5 | MyoF:Decorin | -0.011 ± 0.04 | 0.0175 ± 0.081 | 0.0055 ± 0.0064 | 0.013 ± 0.016 | 0.02 ± 0.03 | 0.0315 ± 0.012 | 0.03 ± 0.016 | 0.083 ± 0.013 | -0.024 ± 0.0028 | -0.0115 ± 0.015 | -0.004 ± 0.024 | 0.014 ± 0.0042 | 0.038 ± 0.05 | 0.0185 ± 0.00071 | 0.028 ± 0.0099 | 0.0305 ± 0.046 | 0.0005 ± 0.016 | 0.004 ± 0.016 | 0.022 ± 0.037
6 | MyoF:MMP-1 | -0.0245 ± 0.0092 | 0.0025 ± 0.086 | -0.031 ± 0.0057 | -0.019 ± 0.011 | 0.012 ± 0.081 | 0.0385 ± 0.005 | 0.065 ± 0.0071 | 0.0885 ± 0.0035 | -0.0385 ± 0.052 | -0.0305 ± 0.013 | 0.01 ± 0.028 | -0.012 ± 0.013 | -0.0145 ± 0.025 | -0.036 ± 0.0085 | 0.007 ± 0.0085 | 0.0865 ± 0.04 | 0.0005 ± 0.0092 | 0.024 ± 0.017 | 0.0405 ± 0.012
7 | MyoF:PAI-I | 0.0005 ± 0.011 | 0.005 ± 0.0042 | 0.0065 ± 0.0035 | 0.002 ± 0.0071 | -0.001 | -0.011 ± 0.013 | 0.0065 ± 0.0078 | 0.0005 ± 0.0064 | -0.0055 ± 0.005 | -0.003 | 0.003 ± 0.0042 | -0.002 ± 0.02 | -0.0025 ± 0.0035 | -0.0215 ± 0.0092 | -0.0075 ± 0.0064 | -0.0285 ± 0.035 | -0.003 ± 0.0071 | 0.001 ± 0.023 | 0.0005 ± 0.018
8 | MyoF:SRB | -0.0005 ± 0.0021 | -0.0065 ± 0.0064 | 0.0015 ± 0.00071 | -0.004 ± 0.0028 | -0.004 ± 0.0057 | -0.002 ± 0.0071 | -0.0035 ± 0.00071 | 0.0085 ± 0.00071 | 0.0005 ± 0.0021 | 0 ± 0.0028 | -0.0065 ± 0.012 | 0.016 ± 0.0014 | 0.0325 ± 0.0021 | 0.002 ± 0.0042 | 0.0025 ± 0.0064 | 0.004 | -0.001 ± 0.0099 | -0.004 ± 0.011 | -0.0085 ± 0.00071
9 | MyoF:TIMP-1 | 0.0225 ± 0.029 | 0.035 ± 0.017 | 0.0115 ± 0.028 | 0.014 ± 0.035 | 0.025 ± 0.03 | 0.012 ± 0.014 | 0.009 ± 0.0085 | 0.0205 ± 0.00071 | -0.053 ± 0.067 | -0.033 ± 0.059 | -0.0275 ± 0.074 | -0.002 ± 0.054 | 0.0165 ± 0.042 | 0.0415 ± 0.0078 | 0.0765 ± 0.0078 | 0.0715 ± 0.026 | -0.031 ± 0.048 | 0.0025 ± 0.018 | 0.016 ± 0.042
10 | MyoF:alpha-SM Actin | 0.0085 ± 0.022 | -0.0005 ± 0.0092 | 0.0105 ± 0.0064 | -0.0045 ± 0.0078 | -0.004 ± 0.02 | -0.016 ± 0.0099 | -0.0265 ± 0.0078 | -0.0195 ± 0.005 | -0.011 ± 0.045 | 0.002 ± 0.023 | -0.0055 ± 0.013 | -0.016 ± 0.02 | -0.0435 ± 0.0035 | 0.0005 ± 0.046 | -0.001 ± 0.038 | 0.004 ± 0.031 | -0.0075 ± 0.0078 | -0.0325 ± 0.00071 | -0.0665 ± 0.00071
11 | MyoF:bFGF | 0.005 ± 0.016 | 0.015 ± 0.025 | -0.003 ± 0.0042 | 0.0045 ± 0.0078 | 0.01 ± 0.017 | 0.0065 ± 0.013 | 0.0105 ± 0.018 | -0.0065 ± 0.0064 | 0.0025 ± 0.0021 | 0.0025 ± 0.0092 | 0.0085 ± 0.0092 | 0.01 ± 0.0014 | 0.021 ± 0.017 | -0.0245 ± 0.018 | -0.024 ± 0.018 | -0.0585 ± 0.037 | -0.0035 ± 0.0021 | -0.003 ± 0.0042 | 0.02 ± 0.011
